{
  "source": "patent US8030341B2",
  "about": "“Dmt-derivative compounds and related compositions and methods of use” (priority 2005, dated 2011)",
  "key": {"[1]": {"target": "T1, δ-opioid receptor (Mus musculus, UniProt P32300)", "T1 construct": "from tissue; host or cells: isolated mouse vas deferens", "T1 sequence (P32300 whole entry)": "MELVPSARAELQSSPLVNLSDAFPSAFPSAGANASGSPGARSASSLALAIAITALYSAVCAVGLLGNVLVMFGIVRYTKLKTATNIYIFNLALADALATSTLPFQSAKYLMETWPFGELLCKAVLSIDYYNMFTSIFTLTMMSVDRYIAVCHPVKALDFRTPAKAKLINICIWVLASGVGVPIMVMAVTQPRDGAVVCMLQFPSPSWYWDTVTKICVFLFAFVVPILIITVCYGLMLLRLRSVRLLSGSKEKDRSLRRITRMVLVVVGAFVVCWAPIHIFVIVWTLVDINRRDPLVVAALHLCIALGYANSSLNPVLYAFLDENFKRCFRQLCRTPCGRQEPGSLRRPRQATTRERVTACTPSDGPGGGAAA", "assay": "mouse vas deferens (MVD) bioassay", "assay_type": "cell-based", "settings": "for MVD Antagonist pA2: versus deltorphin II as agonist", "source_text": "Bioorg. Med. Chem., 11: 675-678 (2003). The isolated tissues were suspended in organ baths containing balanced salt solutions in a physiological buffer, pH 7.5. […]"}, "[2]": {"target": "T2, μ-opioid receptor (Cavia porcellus, UniProt P97266)", "T2 sequence (P97266 whole entry, looked up)": "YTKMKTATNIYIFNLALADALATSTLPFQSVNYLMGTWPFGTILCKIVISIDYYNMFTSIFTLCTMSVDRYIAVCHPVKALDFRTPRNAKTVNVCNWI", "assay": "guinea pig ileum (GPI) bioassay", "assay_type": "cell-based", "settings": "for GPI Antagonist pA2 (nM), value in parentheses (Ke): versus endomorphin-2, antilog of pA2", "description": "The myenteric plexus longitudinal muscle preparations (2-3 cm segments) from the small intestine of male Hartley strain guinea pigs (GP1) measured μ-opioid receptor agonism and a single mouse vas deferens (MVD) was used to determine δ-opioid receptor agonism as described in Sasaki et al. Bioorg. […] The isolated tissues were suspended in organ baths containing balanced salt solutions in a physiological buffer, pH 7.5. Agonists were tested for the inhibition of electrically evoked contraction and expressed as IC50 (nM) obtained from the dose-response curves."}, "[3]": {"target": "T3, μ-opioid receptor (Rattus norvegicus, UniProt P33535)", "T3 construct": "from tissue; host or cells: rat brain P2 synaptosomal membranes (Sprague-Dawley)", "T3 sequence (P33535 whole entry)": "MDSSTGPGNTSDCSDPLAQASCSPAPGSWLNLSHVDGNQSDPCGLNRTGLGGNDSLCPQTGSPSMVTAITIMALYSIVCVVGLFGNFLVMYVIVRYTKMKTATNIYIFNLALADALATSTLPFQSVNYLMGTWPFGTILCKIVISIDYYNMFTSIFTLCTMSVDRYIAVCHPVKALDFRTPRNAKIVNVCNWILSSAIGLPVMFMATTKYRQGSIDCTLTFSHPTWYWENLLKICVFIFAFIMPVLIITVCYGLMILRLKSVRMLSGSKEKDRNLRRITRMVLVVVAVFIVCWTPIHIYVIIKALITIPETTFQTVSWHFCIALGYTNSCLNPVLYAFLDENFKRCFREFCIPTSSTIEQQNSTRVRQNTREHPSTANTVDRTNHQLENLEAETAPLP", "assay": "opioid receptor binding competition assay, rat brain P2 synaptosomal membranes (μ)", "settings": "for Ki(δ)/Ki(μ): selectivity ratio", "description": "(§1) Synaptosomes were preincubated to remove endogenous opioids, washed in excess ice-cold buffer containing protease inhibitor and stored in a glycerol-containing buffer with protease inhibitor at −80° C. as described in Lazarus et al., J. Med. Chem. 34:1350-55 (1991). […] After incubation, the radiolabeled membranes were rapidly filtered on Whatman GF/C glass fiber filters presoaked in 0.1% polyethylenimine in order to optimize the signal-to-noise ratio, washed with ice-cold BSA buffer, and dried at 75-80° C. Radioactivity was determined using EcoLume (ICN, Costa Mesa, Calif.). All compounds were analyzed in duplicate using 5-8 peptide dosages and several synaptosomal preparations in independent repetitions to ensure statistical significance. The affinity constants (Ki) were calculated according to Cheng and Prusoff (Cheng et al., Biochem. Pharmacol., 22: 3099-3108 ([…]))."}, "[4]": {"target": "T4, δ-opioid receptor (Rattus norvegicus, UniProt P33533)", "T4 construct": "from tissue; host or cells: rat brain P2 synaptosomal membranes (Sprague-Dawley)", "T4 sequence (P33533 whole entry)": "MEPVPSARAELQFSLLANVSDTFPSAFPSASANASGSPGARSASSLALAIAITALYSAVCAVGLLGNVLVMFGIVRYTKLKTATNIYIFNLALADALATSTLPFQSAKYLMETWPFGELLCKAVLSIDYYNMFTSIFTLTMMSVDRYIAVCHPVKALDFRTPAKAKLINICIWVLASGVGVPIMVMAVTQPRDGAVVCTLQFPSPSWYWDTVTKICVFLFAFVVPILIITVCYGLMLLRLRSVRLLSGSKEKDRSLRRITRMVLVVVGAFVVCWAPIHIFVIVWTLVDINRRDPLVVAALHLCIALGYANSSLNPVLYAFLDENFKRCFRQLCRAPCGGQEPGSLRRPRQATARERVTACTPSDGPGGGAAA", "assay": "opioid receptor binding competition assay, rat brain P2 synaptosomal membranes (δ)", "description": "as §1"}, "[5]": {"target": "T3, μ-opioid receptor", "settings": "Table 3; reference rows marked e, f, g; cited from earlier work"}, "[6]": {"target": "T2, μ-opioid receptor", "settings": "Table 2; reference value marked 6a; cited from earlier work"}, "[7]": {"target": "T1, δ-opioid receptor", "settings": "Table 2; reference value marked 6a; cited from earlier work"}, "[8]": {"settings": "Table 2, inhibition of electrically evoked contraction, read-out: MVD agonist IC50"}, "[9]": {"settings": "Table 2, versus deltorphin II, antilog of pA2"}, "[10]": {"settings": "Table 2, inhibition of electrically evoked contraction, read-out: GPI agonist IC50"}, "[11]": {"settings": "Table 1, rat brain synaptosomes, footnote b: versus [3H]DPDPE, read-out: Ki(μ)"}, "[12]": {"settings": "Table 1, rat brain synaptosomes, footnote a: versus [3H]DAMGO, read-out: Ki(δ)"}},
  "note": "Structures can show the parent of a compound that is named as a salt. Where two headings read alike, the source gives them in different places.",
  "data": [
    {"compound": "3-(Dmt-Tic-NH-propyl)-6-(Dmt-Tic-NH-butyl)-2(1H)-pyrazinone [Compound 12]", "values": [
      {"measurement": "IC50", "setting": "[1]; [8]", "value": "> 10000", "unit": "nM"},
      {"measurement": "MVD Antagonist pA2", "setting": "[1]; Table 2", "value": 10.60},
      {"measurement": "MVD Antagonist pA2 (nM), value in parentheses (Ke)", "setting": "[1]; [9]", "value": 0.0251, "unit": "nM"},
      {"measurement": "IC50", "setting": "[2]; [10]", "value": "> 10000", "unit": "nM"},
      {"measurement": "Ki", "setting": "[3]; [11]", "value": "1.56 ± 0.11", "unit": "nM"},
      {"measurement": "Ki", "setting": "[4]; [12]", "value": "0.16 ± 0.025", "unit": "nM"},
      {"measurement": "Ki(μ)/Ki(δ)", "setting": "[4]; Table 1, selectivity ratio", "value": 10}
    ]},
    {"compound": "Cc1cc(O)cc(C)c1C[C@H](N)C(=O)NCCCCCCNC(=O)[C@@H](N)Cc1c(C)cc(O)cc1C", "note": "[H-Dmt[NH—(CH2)6—NH]Dmt-H]", "values": [
      {"measurement": "Ki(δ)/Ki(μ)", "setting": "[5]", "value": 870}
    ]},
    {"compound": "C=CCN[C@@H](Cc1ccc(O)cc1)C(=O)N1CCC[C@H]1C(=O)N[C@@H](Cc1ccccc1)C(=O)N[C@@H](Cc1ccccc1)C(N)=O", "note": "[Compound 29, [N-allyl]EM-2]", "values": [
      {"measurement": "Ki(δ)/Ki(μ)", "setting": "[3]; Table 3", "value": 57},
      {"measurement": "Ki", "setting": "[3]; Table 3, versus [3H]DAMGO, rat brain synaptosomes, read-out: Ki(μ)", "value": "130 ± 9.27", "unit": "nM"},
      {"measurement": "Ki", "setting": "[4]; Table 3, versus [3H]DPDPE, rat brain synaptosomes, read-out: Ki(δ)", "value": "7360 ± 259", "unit": "nM"}
    ]},
    {"compound": "C=CCN(CC=C)[C@@H](Cc1c(C)cc(O)cc1C)C(=O)N1CCC[C@H]1C(=O)N[C@@H](Cc1ccccc1)C(=O)N[C@@H](Cc1ccccc1)C(N)=O", "note": "[Compound 30, [N,N-(allyl)2Dmt^1]EM-2]", "values": [
      {"measurement": "GPI pA2", "setting": "[2]; Table 4, μ antagonism", "value": "None"},
      {"measurement": "Ki(δ)/Ki(μ)", "setting": "[3]; Table 3", "value": 108}
    ]},
    {"compound": "Oc1ccc2c3c1O[C@H]1c4[nH]c5ccccc5c4C[C@@]4(O)[C@@H](C2)N(CC2CC2)CC[C@]314", "note": "[Naltrindole]", "values": [
      {"measurement": "GPI Antagonist pA2", "setting": "[6]", "value": 7.3},
      {"measurement": "GPI Antagonist pA2 (nM), value in parentheses (Ke)", "setting": "[6]", "value": 50, "unit": "nM"},
      {"measurement": "MVD Antagonist pA2", "setting": "[7]", "value": 9.2},
      {"measurement": "MVD Antagonist pA2 (nM), value in parentheses (Ke)", "setting": "[7]", "value": 0.631, "unit": "nM"}
    ]},
    {"compound": "3-(Dmt-Tic-NH-ethyl)-6-(Dmt-Tic-NH-butyl)-2(1H)-pyrazinone [Compound 14]", "values": [
      {"measurement": "IC50", "setting": "[1]; [8]", "value": "> 10000", "unit": "nM"},
      {"measurement": "MVD Antagonist pA2", "setting": "[1]; Table 2", "value": 10.99},
      {"measurement": "MVD Antagonist pA2 (nM), value in parentheses (Ke)", "setting": "[1]; [9]", "value": 0.0102, "unit": "nM"},
      {"measurement": "IC50", "setting": "[2]; [10]", "value": "> 10000", "unit": "nM"},
      {"measurement": "Ki", "setting": "[3]; [11]", "value": "1.37 ± 0.13", "unit": "nM"},
      {"measurement": "Ki", "setting": "[4]; [12]", "value": "0.107 ± 0.007", "unit": "nM"},
      {"measurement": "Ki(μ)/Ki(δ)", "setting": "[4]; Table 1, selectivity ratio", "value": 13}
    ]},
    {"compound": "Cc1cc(O)cc(C)c1CC(N)C(=O)N1Cc2ccccc2CC1C(=O)NCCc1cnc(CCNC(=O)C2Cc3ccccc3CN2C(=O)C(N)Cc2c(C)cc(O)cc2C)c(=O)[nH]1", "note": "(stereo not drawn) [Compound 9, 3,6-Bis(Dmt-Tic-NH-ethyl)-2(1H)-pyrazinone]", "values": [
      {"measurement": "IC50", "setting": "[1]; [8]", "value": "> 10000", "unit": "nM"},
      {"measurement": "MVD Antagonist pA2", "setting": "[1]; Table 2", "value": 10.73},
      {"measurement": "MVD Antagonist pA2 (nM), value in parentheses (Ke)", "setting": "[1]; [9]", "value": 0.0186, "unit": "nM"},
      {"measurement": "IC50", "setting": "[2]; [10]", "value": "> 10000", "unit": "nM"},
      {"measurement": "GPI Antagonist pA2 (nM), value in parentheses (Ke)", "setting": "[2]; Table 2", "value": 165, "unit": "nM"},
      {"measurement": "GPI Antagonist pA2", "setting": "[2]; Table 2, versus endomorphin-2 as agonist", "value": 6.78},
      {"measurement": "Ki", "setting": "[3]; [11]", "value": "2.83 ± 0.12", "unit": "nM"},
      {"measurement": "Ki", "setting": "[4]; [12]", "value": "0.095 ± 0.0004", "unit": "nM"},
      {"measurement": "Ki(μ)/Ki(δ)", "setting": "[4]; Table 1, selectivity ratio", "value": 30}
    ]},
    {"compound": "C=CCN(CC=C)[C@@H](Cc1ccc(O)cc1)C(=O)N1CCC[C@H]1C(=O)N[C@@H](Cc1ccccc1)C(=O)N[C@@H](Cc1ccccc1)C(N)=O", "note": "[Compound 28, [N,N-Diallyl-Tyr^1]EM-2]", "values": [
      {"measurement": "Ki", "setting": "[3]", "value": "1050 ± 175", "unit": "nM"},
      {"measurement": "Ki(δ)/Ki(μ)", "setting": "[3]; Table 3", "value": 6},
      {"measurement": "Ki", "setting": "[4]", "value": "5760 ± 1220", "unit": "nM"}
    ]},
    {"compound": "Cc1cc(O)cc(C)c1CC(N)C(=O)N1Cc2ccccc2CC1C(=O)NCc1[nH]c(=O)c(CNC(=O)C2Cc3ccccc3CN2C(=O)C(N)Cc2c(C)cc(O)cc2C)nc1C", "note": "(stereo not drawn) (as salt: HCl) [Compound 8]", "values": [
      {"measurement": "melting point", "value": "224 to 226 °C (dec.)"}
    ]},
    {"compound": "Cc1cc(O)cc(C)c1CC(N)C(=O)N1Cc2ccccc2CC1C(=O)NCc1[nH]c(=O)c(CNC(=O)C2Cc3ccccc3CN2C(=O)C(N)Cc2c(C)cc(O)cc2C)nc1C", "note": "(stereo not drawn) [Compound 8]", "values": [
      {"measurement": "MVD Antagonist pA2 (nM), value in parentheses (Ke)", "setting": "[1]", "value": "11.22 (0.006) nM"},
      {"measurement": "IC50", "setting": "[1]; read-out: MVD agonist IC50", "value": "> 10000", "unit": "nM"},
      {"measurement": "IC50", "setting": "[2]; read-out: GPI agonist IC50", "value": "> 10000", "unit": "nM"},
      {"measurement": "Ki", "setting": "[3]", "value": "3.76 ± 0.3", "unit": "nM"},
      {"measurement": "Ki", "setting": "[4]", "value": "0.163 ± 0.018", "unit": "nM"},
      {"measurement": "Ki(μ)/Ki(δ)", "setting": "[4]", "value": 23}
    ]},
    {"compound": "Cc1cc(O)cc(C)c1CC(N)C(=O)N1Cc2ccccc2CC1C(=O)NCCCCNC(=O)C1Cc2ccccc2CN1C(=O)C(N)Cc1c(C)cc(O)cc1C", "note": "(stereo not drawn) [Compound 18, 1,4-Bis(Dmt-Tic-amino)butane]", "values": [
      {"measurement": "IC50", "setting": "[1]", "value": "> 10000", "unit": "nM"},
      {"measurement": "MVD Antagonist pA2 (nM), value in parentheses (Ke)", "setting": "[1]; [9]", "value": 0.0309, "unit": "nM"},
      {"measurement": "IC50", "setting": "[2]", "value": "> 10000", "unit": "nM"},
      {"measurement": "GPI Antagonist pA2 (nM), value in parentheses (Ke)", "setting": "[2]; Table 2", "value": 102, "unit": "nM"},
      {"measurement": "Ki", "setting": "[3]", "value": "5.72 ± 0.22", "unit": "nM"},
      {"measurement": "Ki", "setting": "[4]", "value": "0.124 ± 0.016", "unit": "nM"},
      {"measurement": "Ki(μ)/Ki(δ)", "setting": "[4]; Table 1, selectivity ratio", "value": 46}
    ]},
    {"compound": "Cc1cc(O)cc(C)c1CC(C(=O)N1Cc2ccccc2CC1C(=O)NCCCCCCNC(=O)C1Cc2ccccc2CN1C(=O)C(Cc1c(C)cc(O)cc1C)N(C)C)N(C)C", "note": "(stereo not drawn) [Compound 21, 1,6-Bis(N,N-Dimethyl-Dmt-Tic-NH)-hexane]", "values": [
      {"measurement": "IC50", "setting": "[1]", "value": "> 10000", "unit": "nM"},
      {"measurement": "MVD Antagonist pA2 (nM), value in parentheses (Ke)", "setting": "[1]; [9]", "value": 0.0052, "unit": "nM"},
      {"measurement": "IC50", "setting": "[2]", "value": "> 10000", "unit": "nM"},
      {"measurement": "Kb", "setting": "[2]", "value": 4, "unit": "nM"},
      {"measurement": "Ki", "setting": "[3]", "value": "2.21 ± 0.08", "unit": "nM"},
      {"measurement": "Ki", "setting": "[4]", "value": "0.06 ± 0.01", "unit": "nM"},
      {"measurement": "Ki(μ)/Ki(δ)", "setting": "[4]; Table 1, selectivity ratio", "value": 37}
    ]}
  ]
}
